PubChem BioAssay (NCI)
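A five-concentration, 48-hour dose response in 96-well plates underlies each endpoint, interpolated linearly between surrounding concentrations. TGI denotes the concentration required for complete inhibition of growth.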

What was measured:
Assay in all cases: NCI anticancer screen, dose series, 48 h
OVCAR-5 ovarian = test system: OVCAR-5 ovarian
MDA-MB-231 breast = test system: MDA-MB-231 breast
RPMI-8226 leukemia = test system: RPMI-8226 leukemia
NCI-H460 lung = test system: NCI-H460 lung
HL-60(TB) leukemia = test system: HL-60(TB) leukemia
OVCAR-3 ovarian = test system: OVCAR-3 ovarian
SN12C renal = test system: SN12C renal
SNB-75 CNS = test system: SNB-75 CNS
MDA-N = test system: MDA-N
IGROV1 ovarian = test system: IGROV1 ovarian
M14 melanoma = test system: M14 melanoma
HCT-116 colon = test system: HCT-116 colon
HT29 colon = test system: HT29 colon
DU-145 prostate = test system: DU-145 prostate
OVCAR-4 ovarian = test system: OVCAR-4 ovarian
K-562 leukemia = test system: K-562 leukemia
ACHN renal = test system: ACHN renal
MOLT-4 leukemia = test system: MOLT-4 leukemia
MCF7 breast = test system: MCF7 breast
NCI-H23 lung = test system: NCI-H23 lung
SNB-19 CNS = test system: SNB-19 CNS
NCI/ADR-RES ovarian = test system: NCI/ADR-RES ovarian
T-47D breast = test system: T-47D breast
UACC-62 melanoma = test system: UACC-62 melanoma
SF-295 CNS = test system: SF-295 CNS
SK-OV-3 ovarian = test system: SK-OV-3 ovarian
MDA-MB-435 = test system: MDA-MB-435
NCI-H522 lung = test system: NCI-H522 lung
NCI-H226 lung = test system: NCI-H226 lung
SW-620 colon = test system: SW-620 colon
A549 NSCLC = test system: A549 NSCLC
SR leukemia = test system: SR leukemia
KM12 colon = test system: KM12 colon
HCC-2998 colon = test system: HCC-2998 colon
HS 578T breast = test system: HS 578T breast
CCRF-CEM leukemia = test system: CCRF-CEM leukemia
SF-268 CNS = test system: SF-268 CNS
HOP-62 NSCLC = test system: HOP-62 NSCLC
A498 renal = test system: A498 renal
EKVX NSCLC = test system: EKVX NSCLC
CAKI-1 renal = test system: CAKI-1 renal
HCT-15 colon = test system: HCT-15 colon
SK-MEL-2 melanoma = test system: SK-MEL-2 melanoma
U251 CNS = test system: U251 CNS
BT-549 breast = test system: BT-549 breast
PC-3 prostate = test system: PC-3 prostate
RXF 393 renal = test system: RXF 393 renal
MALME-3M melanoma = test system: MALME-3M melanoma
HOP-92 NSCLC = test system: HOP-92 NSCLC
OVCAR-8 ovarian = test system: OVCAR-8 ovarian
786-0 renal = test system: 786-0 renal
COLO 205 colon = test system: COLO 205 colon
SK-MEL-28 melanoma = test system: SK-MEL-28 melanoma
LOX IMVI melanoma = test system: LOX IMVI melanoma
UACC-257 melanoma = test system: UACC-257 melanoma
UO-31 renal = test system: UO-31 renal
TK-10 renal = test system: TK-10 renal
SK-MEL-5 melanoma = test system: SK-MEL-5 melanoma
SF-539 CNS = test system: SF-539 CNS

Measured: TGI

O=C(O)c1ccc(C(=O)Nc2cccc3ccccc23)c(C(=O)O)c1
> 100 µM: all assays above

CCCCCC(=O)Nc1n[nH]nc1C#N
> 100 µM: all assays above
